Source: patent US20240335539A1, “MODULATION OF BCL-2 TO ENHANCE CHIMERIC ANTIGEN RECEPTOR CANCER IMMUNOTHERAPY EFFICACY” (The Trustees of the University of Pennsylvania, priority 2021, published 2024)
Where two headings read alike, the source gives them in different places.

Columns and labels:
[1] = tested on: MINO; assay: MINO xenograft model; conditions: venetoclax 50 mg/Kg
Description: For the MINO model, CART cells (5×10^4) were infused 14 days after luciferase+MINO cells were implanted (i.v. injection). […] Either vehicle or venetoclax (50 mg/kg/daily) was administrated for 5 weeks via oral gavage. […] All data represent mean±SD.
CART cells (5×10^4) were infused 14 days after luciferase+MINO cell i.v. injection. […] All data represent mean±SD. One-way ANOVA with posthoc Tukey tests was performed for all comparisons.
Six- to 10-week-old NOD SCID γ chain −/− (NSG) mice were obtained from the Stem Cell & Xenograft Core at the University of Pennsylvania and maintained in pathogen-free conditions. […] For the systemic tumor model, 1×10^6 of either NALM6 or MINO were administrated to NSG mice by tail vein injection.

[2] = tested on: NALM6; assay: Venetoclax-mediated killing, bioluminescence cytotoxicity assay, 48 hours; type: cell-based; conditions: Homo sapiens, NALM-6, read-out: half-maximal inhibitory concentration (IC50)
Description: (§1) FIGS. 2A-2F illustrate the finding that venetoclax and CART19 as a single agent induces concentration- and dose-dependent tumor killing. Luciferase-expressing cancer cells (5×10^4 cells/well) were co-cultured with either various concentrations of venetoclax or different doses of CART19 for 48 hours and luminescence was used to quantify the tumor killing. After 48 hours, luciferin was added to the cells and luminescence was detected using a luminometer (Biotek Synergy H4). Tumor killing (%) was calculated using the formula: (sample−maximal tumor growth)/(lysis control−maximal tumor growth)×100. […] E:T=ratio of effector to target. EC50: Half-maximal effective concentration. CART19: anti-CD19 CAR T cell.
(§2) Cell lines (MINO, Z-138, MAVER, OCI-Ly18, SU-DHL-4, NALM6, MOLM-14 and KG-1) were engineered to express click beetle green, and cell survival was measured using bioluminescence quantification. D-luciferin potassium salt (Perkin-Elmer) was added to cell cultures (final concentration 15 μg/mL) and incubated at 37° C. for 10 minutes. Bioluminescence signal was detected using a BioTek Synergy H4 imager, and signal was analyzed using BioTek Gen5 software. Percent specific lysis was calculated using a control of target cells without effectors. Cytotoxicity assays were established as previously described (Singh, et al., Cancer Discovery 2020; 10(4):552-67) with the addition of vehicle or venetoclax.
(§3) CART19 cells were co-cultured with either vehicle (DMSO) or venetoclax and cytotoxicity was measured at 48 hours. […] This effect was further confirmed using primary NHL cells (MCL) (FIG. 1D). […] Furthermore, to confirm the importance of the BCL-2 pathway in resistance to CART killing, overexpression of BCL-2 was induced in B-cell lymphoma and leukemia cell lines (MINO, SU-DHL-4, and NALM-6) that lack genetic alterations of BCL-2. BCL-2 overexpression led to a significant reduction of tumor killing by CART cell in all models, in particular the venetoclax medium sensitive model (MINO) (FIGS. 4A-4C).

[3] = tested on: MINO; assay: as above; type: cell-based
Description: as §1, §2, §3

[4] = tested on: OCI-Ly18; assay: as above; type: cell-based; conditions: Homo sapiens, read-out: half-maximal inhibitory concentration (IC50)
Description: as §1, §2, §3

[5] = tested on: NALM6; assay: Targeted pro-apoptotic small molecule screening with CART19 against NALM6, killing by luminescence at 48 hours; conditions: drug 100 and 1000 nM with CART19
Description: Killing of NALM6 cells was quantified at 48 hours by luminescence. Drug screening of pro-apoptotic small molecules was performed with two concentrations (100 and 1000 nM). […] Two concentrations of 29 drugs were used (100 nM and 1000 nM). Killing of NALM6 cells was assessed at 48 hours by luminescence. […] UTD: untransduced T cells; CART19: anti-CD19 CAR T cell; MCL: mantle cell lymphoma; E:T=ratio of effector to target; IAP: Inhibition of apoptosis protein.
CART19 and NALM6 (luciferase+) cells were seeded at a ratio of 0.08E:1T (i.e., 600 CART: 7000 NALM6) per well in 25 μl of growth medium (RPMI1640+10% FBS+1% Pen-strep+1% glutamine) of 384-well Corning 3570 microplate using a Multidrop™ Combi Reagent Dispenser (Thermo Scientific). Following cell seeding, drugs (50 nL) were transferred to assay plates using a 50 nL slotted pin tool (V&P Scientific) and a JANUS Automated Workstation (Perkin Elmer). Compounds/drugs were added to a final concentration of 1 μM in 0.2% DMSO. Columns 1 and 23 were treated with 0.2% DMSO (negative control). […] Luminescence was measured on an EnVision Xcite Multilabel Plate Reader (PerkinElmer), using the ultrasensitive luminescence measurement technology.
In order to screen pro-apoptotic small molecules that can enhance CART cell killing, a targeted screening assay was performed. […] Tumor killing was measured by luminescence at 48 hours.

[6] = tested on: NALM6; assay: NALM6 xenograft model; type: in vivo; conditions: CART19 with or without venetoclax 100 mg/kg daily, oral gavage for five weeks
Description: Either venetoclax (100 mg/kg) or vehicle were administered to the mice via oral gavage daily. To monitor the survival of CART in vivo, mouse blood ([…]) was collected from submandibular vein of mouse on day 15 after CART infusion and measured the absolute number of human CD3+ T cells in mouse blood using flow cytometry. Tumor volume was monitored by measuring luminescen intensity in mouse by IVIS system. […] One-way ANOVA with post-hoc Tukey test was performed. […] All data represent mean±SD. *P<0.05. ns: not significant. UTD: untransduced T cell. CART19: anti-CD19 CAR T cell. CART19-BCL2(WT): BCL-2(WT) overexpressing anti-CD19 CAR T cell.
All data represent mean±SD.
To investigate this hypothesis, the expansion and persistence of CART19 cells in the peripheral blood of NSG mice treated with CART19 plus venetoclax or CART19 alone was analyzed using flow cytometry. […] To test whether prolonged exposure to venetoclax leads to CART cell toxicity, an in vitro venetoclax toxicity assay was performed using CART cells manufactured from 8 different T cell donors. […] In order to discern whether the reduced survival was due to increased apoptosis or reduction of proliferation, the caspase 3/7 activity in CART19 was assessed in the presence or absence of venetoclax. […]

[7] = patient treated with venetoclax (Jones et al. 2016); cited from earlier work
[8] = tested on: CART19; assay: In vitro venetoclax CART cell toxicity assay; type: cell-based, human; conditions: for IC50: Homo sapiens
Description: (§4) CART cells were combined with target cancer cells at an E:T ratio of 0.25:1, and co-cultures were evaluated for absolute count of T cells and cancer cells by flow cytometry using CountBright absolute counting beads (ThermoFisher) every three days. Cultures were maintained at a concentration of 1×10^6 total cells/mL. To monitor their differentiation status, CART cells were harvested on day 0, 9, and 18. Next, CART cells were stained with anti-CCR7 and anti-CD45RA antibodies for flow cytometric analysis. CART cells were re-stimulated by PMA/Ionomycin on day 18 after initial stimulation in order to evaluate the anti-tumor activity of long-survived CART cells.
To investigate this hypothesis, the expansion and persistence of CART19 cells in the peripheral blood of NSG mice treated with CART19 plus venetoclax or CART19 alone was analyzed using flow cytometry. […] To test whether prolonged exposure to venetoclax leads to CART cell toxicity, an in vitro venetoclax toxicity assay was performed using CART cells manufactured from 8 different T cell donors. […] Of note, the level of toxicity to CART cells varied among the different T cell donors, likely due to different apoptotic priming statuses at baseline. […] In order to discern whether the reduced survival was due to increased apoptosis or reduction of proliferation, the caspase 3/7 activity in CART19 was assessed in the presence or absence of venetoclax. […] Overall, these studies indicate that the higher doses of venetoclax required to suppress neoplasms with venetoclax resistance can cause apoptosis in CART19 cells. However, the BCL-2 pathway is a critical node for cancer resistance to CART immunotherapy and venetoclax can be toxic to CART cells. Thus, a different approach to overcome the limitation of targeting BCL-2 combined with CART immunotherapy was needed.
(§5) Correct expression of the transgenes in target cells was confirmed by intracellular staining for CAR19 and BCL-2 using flow cytometry (FIG. 10B). […] Additionally, venetoclax CART cell toxicity assays were performed to evaluate whether the mutant BCL-2 could provide resistance to venetoclax.

[9] = tested on: CART19-BCL-2(WT); assay: In vitro venetoclax CART cell toxicity assay; type: cell-based; conditions: Homo sapiens; venetoclax on CART19-BCL-2(WT); long-term in vitro assay; n=3 donors; read-out: average IC50 value (CART cell survival)
Description: as §4, §5

Compound: CC1(C)CCC(CN2CCN(c3ccc(C(=O)NS(=O)(=O)c4ccc(NCC5CCOCC5)c([N+](=O)[O-])c4)c(Oc4cnc5[nH]ccc5c4)c3)CC2)=C(c2ccc(Cl)cc2)C1 [venetoclax]
- Toxicity to CART cells in vivo [1]: toxic to CART19
- IC50 [2]: 1.3 µM
- IC50 ([3]; Homo sapiens, MINO, 48 hours, read-out: half-maximal inhibitory concentration (IC50)): 0.0682 µM
- IC50 for MINO relative to OCI-Ly18 ([3]; MINO vs OCI-Ly18): 5 fold
- IC50 [4]: 0.0185 µM
- Enhancement of CART19 killing / CART cell cytotoxicity [5]: strong enhancement of CART19 killing
- Mice showing tumor relapse [6]: 40%
- physiological concentration in a patient [7]: around 2.3 M
- Survival of CART19 cells ([8]; 5 days of co-culture, CART cells from 8 donors): significant reduction in the survival of CART19 cells
- IC50 ([8]; healthy donor-derived CAR T cell, read-out: average value of the IC50 concentration): 0.6 µM
- IC50 ([8]; venetoclax on CART19, long-term in vitro assay, n=3 donors, read-out: average IC50 value (CART cell survival)): 0.131 µM
- Caspase 3/7 activation in CART cells ([8]; venetoclax present vs absent): significant caspase 3/7 activation in CART cells
- IC50 [9]: 0.998 µM
